“Also recorded” adds a separate entry of the source.
Experiments:
γ-secretase [1] = biological target: T1, γ-secretase (Homo sapiens, UniProt P49768); assay: In vitro γ-secretase activity assay, Aβ40 production (ECL); type: biochemical; conditions: for IC50: in vitro inhibition of γ-secretase activity that generates Aβ40, 2.5 hr at 37° C., ECL detection; for Aβ40/Aβ42 ratio: ratio of IC50 for Aβ40 to IC50 for Aβ42
T1 construct: endogenous in cells
Protocol: (§1) FIG. 2. In vitro characterization of coumarin-dimer allosteric GSIs against various γ-secretase cleavage products. The potency of 7 unique coumarin-based γ-secretase inhibitors were evaluated for efficacy against γ-secretase-mediated production of Aβ40, Aβ42, Aβ38, and Notch. Additionally, the pan-GSI Compound E was also examined in these assays. The IC50 values were calculated from the dose response curves using a non-linear regression analysis in Prism software. IC50 values are presented with standard deviation (n=3 for each data point). The three β-amyloid-detection in vitro assays were modified from our previously reported assay (21) using a biotinylated substrate that eliminated the requirement of anti-β-amyloid biotinylated antibody. Ruthenylated antibodies that detected the -40, -42, or -38 cleavage site were incorporated to detect proteolysis indicative of γ-secretase activity. In vitro Notch assay utilized a recombinant transmembrane portion of the Notch peptide and anti-Notch1 SM320 antibody in conjunction with ruthenylated anti-rabbit secondary antibodies. Electrochemiluminescence was quantified on an Analyzer (BioVeris). The selectivity ratio for Aβ42 inhibition over Aβ40 and Notch are indicated in the two far right columns.
The assay protocol employed was a modified version of that described in Li et al., 2000, Proc. Nat'l Acad. Sci. USA 97:6183-643, incorporated herein by reference. Briefly, recombinant peptide substrate was incubated with γ-secretase (40 μg/ml) in the presence or absence of test compound. The reaction mixture contained 0.25% CHAPSO, 0.1 μg/μl BSA, protease inhibitor, 50 mM PIPES, pH 7.0, 5 mM MgCl2, 5 mM CaCl2 and 150 mM KCl. The reaction was incubated for 2.5 hr at 37° C. and stopped by adding RIPA buffer (150 mM NaCl, 1.0% NP-40, 0.5% sodium deoxycholate, 0.1% SDS, 50 mM Tris HCl, pH 8.0). The products were detected with various antibody combinations using electrochemiluminescence (ECL) technology as previously described in Li et al., 2000, Proc. Nat'l Acad. Sci. USA 97:6183-643; Lai et al., 2003, J. Biol. Chem. 278: 22475-22481; and Yin et al., 2007, J. Biol. Chem. 282:23639-23644. The amount of product was determined using synthetic peptide or recombinant standards.
(§2) Cell membranes and solubilized γ-secretase were prepared as described previously (36). The in vitro and cell γ-secretase assays detecting either Aβ38, Aβ40, or Aβ42 cleavage were performed similar as previously described (21, 36). Cleaved product was detected using ruthenylated antibodies that recognize specific APP cleavage sites (Aβ31-38*, G2-10*, or G2-11* antibody for Aβ38, Aβ40, or Aβ42 respectively). The Km and Vmax in the presence and absence of γ-secretase inhibitors were analyzed by non-linear curve fit using the software SigmaPlot 8.0 with the Michaelis-Menten equation (v=Vm [S]/(Km+[S]; v: initial rate; Vm: maximum velocity; Km: the Michaelis-Menten constant, S: substrate).

γ-secretase [2] = biological target: T1, γ-secretase; assay: In vitro γ-secretase activity assay, Aβ42 production (ECL); type: biochemical; conditions: in vitro inhibition of γ-secretase activity that generates Aβ42; 2.5 hr at 37° C., ECL detection
Protocol: as §1, with “The potency of 7 unique coumarin-based γ-secretase inhibitors were evaluated for efficacy against γ-secretase-mediated production of Aβ40, Aβ42, Aβ38, and Notch. Additionally, the pan-GSI Compound E was also examined in these assays.” left out, “IC50 values are presented with standard deviation (n=3 for each data point).” left out, “(BioVeris).” for “(BioVeris). The selectivity ratio for Aβ42 inhibition over Aβ40 and Notch are indicated in the two far right columns.”
Briefly, recombinant peptide substrate was incubated with γ-secretase (40 μg/ml) in the presence or absence of test compound. […] The reaction was incubated for 2.5 hr at 37° C. and stopped by adding RIPA buffer (150 mM NaCl, 1.0% NP-40, 0.5% sodium deoxycholate, 0.1% SDS, 50 mM Tris HCl, pH 8.0). […] The amount of product was determined using synthetic peptide or recombinant standards.
as §2

[3] = tested on: N2a mouse neuroblastoma cells that stably express Swedish-mutated APP; assay: Cell-based assay of secreted Aβ42, Aβ40, Aβ38 in APPsw-N2A cells; conditions: 24 hrs, in words, CS-1 up to 30 μM
Protocol: FIG. 3. Cellular evaluation of the coumarin-dimer CS-1 and its selective inhibition of Aβ42. Compounds were incubated with the APPsw-N2A mouse neuroblastoma cells for 24 hours and media were analyzed by biotinylated 4G8 and ruthenylated antibodies specific for each respective cleavage product. […] (d) Immunoprecipitation mass spectrometry analysis of CS-1 effect on secreted β-amyloid species. Aβ peptides were immunoprecipitated using 4G8 antibody and isolated with Protein G+/A agarose beads. Samples were analyzed by MALDI-MS. Samples shown are representative and each data point was performed in triplicate. (e) Cell-based Notch cleavage assay. HEK-293 cells were transfected with ΔE Notch construct and then Compound E and CS-1 were evaluated for their ability to inhibit γ-secretase-mediated Notch intracellular domain production. […] Western blot is representative and was performed in triplicate. (f) Effect of CS-1 on AICD production. N2A APPsw cell membrane was prepared and incubated with the indicated concentrations of CS-1 at 37° C. for 2 hours. The generated AICD and APP-CTFs were detected by Western Blotting using APPc antibody. Western blot is representative and was performed in triplicate.
We next set out to determine if the selective inhibition of Aβ42 was maintained in a cell-based system for APP processing. First, we compared our lead compound CS-1 (FIG. 3a) to Compound E (FIG. 3b) and the GSM compound indomethacin (FIG. 3c). N2a mouse neuroblastoma cells that stably express Swedish-mutated APP substrate were treated with the indicated compounds for 24 hrs at 37° C. Following 24 hr incubation period, the medium was collected from the cells and assayed for secreted Aβ42, Aβ40, and Aβ38. […] The result for indomethacin mirrored those findings by Kukar et al. whereby a different cell-based system was utilized (17), further validating our assay system for analysis of these Aβ species. […] This may reflect subtle variations between the cellular and in vitro conformations of γ-secretase. Nevertheless, the cell-based studies confirmed that CS-1 maintains a preference for inhibition of the γ-secretase mediated production of Aβ42 over Aβ40 or Aβ38, which is distinct to previously reported GSMs (17) and inhibitors (14-15, 18).
as §2

Compound | IC50 (γ-secretase [1]) [µM] | IC50 (γ-secretase [2]) [µM] | Aβ40/Aβ42 ratio (γ-secretase [1]) | effect on secreted Aβ38 production [3] | effect on secreted Aβ40 production [3] | effect on secreted Aβ42 production [3]
Oc1ccnc(O)c1C(c1cc(F)c(F)c(F)c1)c1c(O)ccnc1O [Compound 738] | > 100 | > 100 |  |  |  | 
O=c1oc2ccccc2c(O)c1C(c1ccc(C(F)(F)F)cc1)c1c(O)c2ccccc2oc1=O [Compound 728] | 7 | 1.6 | 4.4 |  |  | 
O=c1oc2ccc(F)cc2c(O)c1C(c1cc(F)c(F)c(F)c1)c1c(O)c2cc(F)ccc2oc1=O [Compound 203] | 2.6 | 0.9 | 2.9 |  |  | 
O=c1oc2ccccc2c(O)c1C(/C=C/c1cc(F)c(F)c(F)c1)c1c(O)c2ccccc2oc1=O [(trans)-1] | 3.7 | 2.9 | 1.3 |  |  | 
O=C(CC(c1cc(F)c(F)c(F)c1)c1c(O)c2ccccc2oc1=O)NCc1cc(F)cc(F)c1 (stereo not shown) [compound 512] | 1.86 | 1.24 | 1.5 |  |  | 
O=c1oc2ccccc2c(O)c1Cc1cc(F)c(F)c(F)c1 [compound 476] | > 100 | > 100 |  |  |  | 
COc1ccc2c(c1)c(CC(=O)O)c(C)n2C(=O)c1ccc(Cl)cc1 [indomethacin] |  |  |  | potently increases; also recorded: significantly enhanced | little effect; also recorded: no effect | reduces; also recorded: abrogated
O=c1oc2ccccc2c(O)c1C(c1ccc(Cl)cc1)c1c(O)c2ccccc2oc1=O [compound 729] | 1.7 | 1.2 | 1.4 |  |  | 
O=c1oc2ccccc2c(O)c1C(c1c(O)c2ccccc2oc1=O)C1CCCCC1 [Compound 733] | 4.2 | 1.2 | 3.5 |  |  | 
O=c1sc2ccccc2c(O)c1C(c1cc(F)c(F)c(F)c1)c1c(O)c2ccccc2sc1=O [Compound 53] | 1.3 | 0.5 | 2.6 |  |  | 
COc1ccc(/C=C/C(c2c(O)c3ccccc3oc2=O)c2c(O)c3ccccc3oc2=O)cc1 [(trans)-258] | 21.5 | 5.6 | 3.8 |  |  | 
CCc1ccc(C(c2c(O)c3ccccc3oc2=O)c2c(O)c3ccccc3oc2=O)cc1 [Compound 210] | 4.6 | 1.9 | 2.4 |  |  | 
O=c1oc2ccccc2c(O)c1C1c2cc(F)c(F)cc2Oc2c1c(=O)oc1ccccc21 (stereo not shown) [Compound 369] | 2.6 | 0.9 | 2.9 |  |  | 
O=c1oc2ccccc2c(O)c1C1c2c(F)c(F)c(F)c(F)c2Oc2c1c(=O)oc1ccccc21 (stereo not shown) [Compound 423] | 3.4 | 1.3 | 2.6 |  |  | 
O=c1[nH]c2ccccc2c(O)c1C(c1cc(F)c(F)c(F)c1)c1c(O)c2ccccc2[nH]c1=O [Compound 45] | 8 | 3.4 | 2.4 |  |  | 
CC(=O)Nc1ccc(C(c2c(O)c3ccccc3oc2=O)c2c(O)c3ccccc3oc2=O)cc1 [Compound 732] | 63.9 | 15.9 | 4.0 |  |  | 
O=c1oc2ccccc2c(O)c1C(c1ccc(I)cc1)c1c(O)c2ccccc2oc1=O [compound 731] | 6.1 | 1.5 | 4.1 |  |  | 
O=c1oc2ccccc2c(O)c1C(c1cccc(C(F)(F)F)c1)c1c(O)c2ccccc2oc1=O [Compound 209] | 2 | 0.8 | 2.5 |  |  | 
Cc1ccc2oc(=O)c(C(c3cc(F)c(F)c(F)c3)c3c(O)c4cc(C)ccc4oc3=O)c(O)c2c1 [Compound 197] | 3.26 | 1.59 | 2.1 |  |  | 
O=C(Cc1cc(F)cc(F)c1)c1c(O)c2ccccc2oc1=O [Compound 560] | 89.9 | 26.9 | 3.3 |  |  | 
COc1ccc(C(c2c(O)c3ccccc3oc2=O)c2c(O)c3ccccc3oc2=O)cc1F [Compound 77] | 6.2 | 2.8 | 2.2 |  |  | 
O=c1oc2ccccc2c(O)c1C(Cc1ccc(F)cc1)c1c(O)c2ccccc2oc1=O [Compound 199] | 4 | 0.9 | 4.4 |  |  | 
C/C=C/C=C/C(c1c(O)c2ccccc2oc1=O)c1c(O)c2ccccc2oc1=O [Compound 257] | 9.9 | 7.3 | 1.4 |  |  | 
O=c1oc2ccccc2c(O)c1C(c1ccccc1F)c1c(O)c2ccccc2oc1=O [Compound 734] | 1.95 | 7.2 | 0.3 |  |  | 
O=c1oc2ccccc2c(O)c1C(c1cc(F)cc(F)c1)c1c(O)c2ccccc2oc1=O [Compound 61] | 0.34 | 0.17 | 2.0 |  |  | 
Nc1ccc2c(c1)Oc1c(c(=O)oc3ccccc13)C2c1c(O)c2ccccc2oc1=O (stereo not shown) [Compound 372] | 19.4 | 9.9 | 2.0 |  |  | 
O=c1oc2ccccc2c(O)c1C(c1ccc(Br)cc1)c1c(O)c2ccccc2oc1=O [compound 730] | 1.7 | 1.2 | 1.4 |  |  | 
Cc1coc(=O)c(C(c2cc(F)c(F)c(F)c2)c2c(O)c(C)coc2=O)c1O [compound 668] | 4.2 | 1.7 | 2.5 |  |  | 
O=C(Cc1cc(F)cc(F)c1)NCCNC(=O)CC(c1cc(F)c(F)c(F)c1)c1c(O)c2ccccc2oc1=O (stereo not shown) [compound 520] | 9.23 | 4.53 | 2.0 |  |  | 
